Experiment [1] has as its target T1, ABI1 (Arabidopsis thaliana, UniProt P49597).
T1 construct: ORF from Arabidopsis cDNA library in pET28a, His6-tagged, E. coli Rosetta 2 (DE3), Ni-NTA and gel filtration
T1 sequence (P49597 1-434): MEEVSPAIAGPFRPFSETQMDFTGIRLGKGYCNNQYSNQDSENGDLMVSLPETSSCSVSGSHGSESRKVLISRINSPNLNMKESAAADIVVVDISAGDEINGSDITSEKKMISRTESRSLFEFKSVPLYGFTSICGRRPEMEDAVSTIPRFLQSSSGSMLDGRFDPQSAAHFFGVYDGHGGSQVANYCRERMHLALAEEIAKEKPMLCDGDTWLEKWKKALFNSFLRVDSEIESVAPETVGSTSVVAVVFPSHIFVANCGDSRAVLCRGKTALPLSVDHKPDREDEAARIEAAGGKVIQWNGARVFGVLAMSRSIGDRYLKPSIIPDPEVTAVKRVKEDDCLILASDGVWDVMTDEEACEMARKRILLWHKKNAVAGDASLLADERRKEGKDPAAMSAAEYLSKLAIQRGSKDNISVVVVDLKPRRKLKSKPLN
Nature of the experiment: SPR, 3AESA immobilised on CM5 chip. It counts as binding. Conditions: 3AESA amide-coupled to chip; 1 uM protein; competed by SA.

Experiment [2] deals with T2, ABI2 (Arabidopsis thaliana, UniProt O04719).
T2 construct: ORF from Arabidopsis cDNA library in pET28a, His6-tagged, E. coli Rosetta 2 (DE3), Ni-NTA and gel filtration
T2 sequence (O04719 1-423): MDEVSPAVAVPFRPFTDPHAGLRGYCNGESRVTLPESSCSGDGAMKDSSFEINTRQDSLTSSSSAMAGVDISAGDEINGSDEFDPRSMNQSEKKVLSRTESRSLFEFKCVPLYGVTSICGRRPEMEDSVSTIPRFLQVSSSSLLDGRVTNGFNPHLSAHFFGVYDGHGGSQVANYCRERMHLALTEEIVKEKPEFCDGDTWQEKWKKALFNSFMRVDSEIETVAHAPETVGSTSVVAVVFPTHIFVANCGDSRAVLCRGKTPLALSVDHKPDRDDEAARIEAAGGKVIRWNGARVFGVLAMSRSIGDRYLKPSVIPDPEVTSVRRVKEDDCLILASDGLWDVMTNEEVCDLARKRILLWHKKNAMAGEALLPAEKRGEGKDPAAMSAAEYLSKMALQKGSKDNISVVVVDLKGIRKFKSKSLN
Put plainly: SPR, 3AESA immobilised on CM5 chip. It is filed as binding. Conditions: 3AESA amide-coupled to chip; 1 uM protein; competed by SA.

In experiment [3] the target is T3, PP2C-D4 (Arabidopsis thaliana, UniProt Q94CL8).
T3 construct: gene PP2C6; ORF from Arabidopsis cDNA library in pET42a (NdeI/XhoI), His6-tagged, E. coli Rosetta 2 (DE3), Ni-NTA and gel filtration
T3 sequence (Q94CL8 1-384): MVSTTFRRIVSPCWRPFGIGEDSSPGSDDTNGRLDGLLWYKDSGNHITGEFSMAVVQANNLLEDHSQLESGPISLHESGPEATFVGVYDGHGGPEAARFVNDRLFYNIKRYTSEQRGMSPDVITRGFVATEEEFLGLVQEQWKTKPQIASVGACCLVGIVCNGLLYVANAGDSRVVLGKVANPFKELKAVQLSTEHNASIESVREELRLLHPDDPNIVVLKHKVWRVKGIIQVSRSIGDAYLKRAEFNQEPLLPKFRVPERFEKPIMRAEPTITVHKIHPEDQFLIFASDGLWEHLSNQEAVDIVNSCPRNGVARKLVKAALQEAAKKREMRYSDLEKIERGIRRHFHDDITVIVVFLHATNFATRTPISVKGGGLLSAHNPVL
Put plainly: SPR, 3AESA immobilised on CM5 chip. Conditions: 3AESA amide-coupled to chip; 1 uM protein; competed by SA. It counts as binding.

Experiment [4] has as its target T1, ABI1. Nature of the experiment: photoaffinity crosslinking, anti-SA immunoblot. It is filed as binding. Conditions: 50 uM 4AzSA; 50 ng protein; photo-activated, covalent; competed by SA.
Experiment [5] addresses T2, ABI2. Nature of the experiment: photoaffinity crosslinking, anti-SA immunoblot. It is filed as binding. Conditions: 50 uM 4AzSA; 50 ng protein; photo-activated, covalent; competed by SA.
Experiment [6] has as its target T4, PYL1 with ABI1 (Arabidopsis thaliana, UniProt Q8VZS8).
T4 construct: His6-SUMO-tagged PYL1 immobilised on CM5 chip; His6-ABI1 as analyte; both from E. coli; with Protein phosphatase 2C 56
T4 sequence (Q8VZS8 2-221): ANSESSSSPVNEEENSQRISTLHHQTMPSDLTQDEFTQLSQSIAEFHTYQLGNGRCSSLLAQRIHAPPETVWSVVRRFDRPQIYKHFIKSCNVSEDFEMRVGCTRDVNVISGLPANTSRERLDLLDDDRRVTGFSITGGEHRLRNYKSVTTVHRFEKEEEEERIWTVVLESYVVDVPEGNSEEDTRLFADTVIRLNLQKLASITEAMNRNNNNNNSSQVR
T4 sequence (P49597 1-434 partner): T1 sequence (P49597 1-434)
Put plainly: SPR of ABI1 binding to immobilised PYL1, enhanced by ABA. Conditions: indirect: ABA-enhanced receptor-PP2C interaction; HBS-EP buffer.

Experiment [7] addresses T5, PYR1 with ABI1 (Arabidopsis thaliana, UniProt O49686).
T5 construct: His-SUMO-tagged PYR1 immobilised on CM5 chip; His6-ABI1 as analyte; both from E. coli; with Protein phosphatase 2C 56
T5 sequence (O49686 1-191): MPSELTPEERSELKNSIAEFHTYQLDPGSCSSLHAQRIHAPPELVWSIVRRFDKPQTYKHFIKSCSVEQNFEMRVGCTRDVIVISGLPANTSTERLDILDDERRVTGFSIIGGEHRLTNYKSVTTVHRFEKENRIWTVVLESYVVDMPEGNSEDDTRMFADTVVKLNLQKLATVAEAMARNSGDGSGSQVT
T5 sequence (P49597 1-434 partner): T1 sequence (P49597 1-434)
Put plainly: SPR of ABI1 binding to immobilised PYR1, enhanced by ABA. To be noted: indirect: ABA-enhanced receptor-PP2C interaction; HBS-EP buffer.

In experiment [8] the target is T6, PYL2 with ABI1 (Arabidopsis thaliana, UniProt O80992).
T6 construct: His-SUMO-tagged PYL2 immobilised on CM5 chip; His6-ABI1 as analyte; both from E. coli; with Protein phosphatase 2C 56
T6 sequence (O80992 1-190): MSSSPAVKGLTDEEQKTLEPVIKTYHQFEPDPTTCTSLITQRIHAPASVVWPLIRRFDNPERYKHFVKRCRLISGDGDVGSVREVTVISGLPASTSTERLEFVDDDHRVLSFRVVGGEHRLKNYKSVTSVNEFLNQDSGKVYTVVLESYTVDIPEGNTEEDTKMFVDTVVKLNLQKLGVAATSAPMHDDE
T6 sequence (P49597 1-434 partner): T1 sequence (P49597 1-434)
Nature of the experiment: SPR of ABI1 binding to immobilised PYL2, enhanced by ABA. Conditions: indirect: ABA-enhanced receptor-PP2C interaction; HBS-EP buffer.

Experiment [9] deals with T3, PP2C-D4. Put plainly: size-exclusion chromatography with [3H]SA. To be noted: 200 nM [3H]SA; 200 ng/ul protein; labelled compound. It is filed as binding.
Experiment [10] has as its target T1, ABI1. Nature of the experiment: size-exclusion chromatography with [3H]SA. It is filed as binding. Conditions: 200 nM [3H]SA; 200 ng/ul protein; labelled compound.
For experiment [11], the target named is T2, ABI2. Nature of the experiment: size-exclusion chromatography with [3H]SA. It is filed as binding. To be noted: 200 nM [3H]SA; 200 ng/ul protein; labelled compound.

Here are results for four molecules from PMC6508495, “Members of the abscisic acid co‐receptor PP2C protein family mediate salicylic acid–abscisic acid crosstalk” (Plant Direct, 2017).

Regarding `NCCc1cccc(C(=O)O)c1O` [3AESA], the “SPR, 3AESA immobilised on CM5 chip” value was “recombinant ABI1 and ABI2 bound the 3AESA‐immobilized sensor chip and crosslinked with 4AzSA” in experiment [1]; “recombinant ABI1 and ABI2 bound the 3AESA‐immobilized sensor chip and crosslinked with 4AzSA” in experiment [2]; “Binding to 3AESA was detected when purified PP2C‐D4 was passed over the sensor chip” in [3].
Take `[N-]=[N+]=Nc1ccc(C(=O)O)c(O)c1` [4AzSA]: the “photoaffinity crosslinking, anti-SA immunoblot” value in [4] was “recombinant ABI1 and ABI2 bound the 3AESA‐immobilized sensor chip and crosslinked with 4AzSA”; in experiment [5], “recombinant ABI1 and ABI2 bound the 3AESA‐immobilized sensor chip and crosslinked with 4AzSA”.
For `CC1=CC(=O)CC(C)(C)[C@@]1(O)/C=C/C(C)=C\C(=O)O` [ABA], in experiment [6], the “SPR of ABI1 binding to immobilised PYL1, enhanced by ABA” value was “this binding was enhanced several fold in the presence of ABA”. The “SPR of ABI1 binding to immobilised PYR1, enhanced by ABA” value in experiment [7] is “dose‐dependent binding to the PP2Cs, which was further enhanced in the presence of ABA”. Besides, the “SPR of ABI1 binding to immobilised PYL2, enhanced by ABA” value in [8] is recorded as “dose‐dependent binding to the PP2Cs, which was further enhanced in the presence of ABA”.
Take `O=C(O)c1ccccc1O` [SA]: the “size-exclusion chromatography with [3H]SA” value in experiment [9] is “PP2C‐D4's ability to bind SA also was confirmed by size‐exclusion chromatography using [^3H]SA”; in experiment [10], “ABI1 exhibited relatively weak binding to [^3H]SA”; in experiment [11], “ABI2's binding to [^3H]SA was comparable to that of PP2C‐D4”.
